Test results published in US20250176598A1, “AMIDE COMPOUNDS AND THEIR USE AS FLAVOR MODIFIERS” (Firmenich Incorporated, priority 2022, published 2025).

Target: T1, T1R umami taste receptor (Homo sapiens, UniProt Q7RTX0+Q7RTX1)
T1 sequence (Q7RTX1 21-841): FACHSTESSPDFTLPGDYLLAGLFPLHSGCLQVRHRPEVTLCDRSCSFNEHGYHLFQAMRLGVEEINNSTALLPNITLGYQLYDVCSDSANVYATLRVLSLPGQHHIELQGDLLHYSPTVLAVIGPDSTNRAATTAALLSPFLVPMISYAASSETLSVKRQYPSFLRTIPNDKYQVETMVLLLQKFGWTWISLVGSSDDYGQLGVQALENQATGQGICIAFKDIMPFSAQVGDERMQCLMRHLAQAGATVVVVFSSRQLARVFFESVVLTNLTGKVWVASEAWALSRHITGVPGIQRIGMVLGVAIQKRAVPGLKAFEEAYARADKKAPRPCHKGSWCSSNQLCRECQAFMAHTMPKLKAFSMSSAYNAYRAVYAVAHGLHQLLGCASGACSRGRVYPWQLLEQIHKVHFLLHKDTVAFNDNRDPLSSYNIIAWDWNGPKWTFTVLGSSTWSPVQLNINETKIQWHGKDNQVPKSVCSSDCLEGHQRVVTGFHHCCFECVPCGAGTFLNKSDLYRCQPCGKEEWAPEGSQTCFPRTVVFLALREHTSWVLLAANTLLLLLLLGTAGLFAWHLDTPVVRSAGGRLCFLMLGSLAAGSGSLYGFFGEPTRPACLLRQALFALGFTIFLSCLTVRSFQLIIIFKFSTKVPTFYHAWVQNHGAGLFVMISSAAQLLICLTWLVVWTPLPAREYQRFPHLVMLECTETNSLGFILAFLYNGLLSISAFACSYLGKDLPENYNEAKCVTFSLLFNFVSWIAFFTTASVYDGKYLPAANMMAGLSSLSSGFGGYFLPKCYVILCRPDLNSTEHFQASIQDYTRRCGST
T1 sequence (Q7RTX0 21-852): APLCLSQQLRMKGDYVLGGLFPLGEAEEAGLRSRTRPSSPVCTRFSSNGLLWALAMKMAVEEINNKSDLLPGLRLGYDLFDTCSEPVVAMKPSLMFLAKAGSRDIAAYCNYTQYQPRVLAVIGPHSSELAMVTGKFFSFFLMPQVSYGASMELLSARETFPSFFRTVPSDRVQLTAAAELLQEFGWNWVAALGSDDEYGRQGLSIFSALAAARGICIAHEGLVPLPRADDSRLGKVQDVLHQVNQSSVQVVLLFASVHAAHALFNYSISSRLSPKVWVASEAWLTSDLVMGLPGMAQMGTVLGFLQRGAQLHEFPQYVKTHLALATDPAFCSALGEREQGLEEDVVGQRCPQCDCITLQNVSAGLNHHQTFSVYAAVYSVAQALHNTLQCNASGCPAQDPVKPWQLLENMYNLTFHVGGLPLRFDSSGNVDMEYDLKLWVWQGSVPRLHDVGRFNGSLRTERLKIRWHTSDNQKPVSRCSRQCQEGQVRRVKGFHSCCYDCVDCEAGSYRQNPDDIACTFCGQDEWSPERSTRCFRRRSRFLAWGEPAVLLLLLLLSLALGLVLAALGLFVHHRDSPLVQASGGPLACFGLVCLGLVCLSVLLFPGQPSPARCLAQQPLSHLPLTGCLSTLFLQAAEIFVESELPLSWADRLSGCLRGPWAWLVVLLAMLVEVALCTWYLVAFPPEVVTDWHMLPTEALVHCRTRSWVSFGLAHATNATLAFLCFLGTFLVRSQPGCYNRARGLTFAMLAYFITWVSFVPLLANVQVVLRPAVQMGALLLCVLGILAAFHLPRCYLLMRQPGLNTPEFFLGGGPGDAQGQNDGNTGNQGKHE
Assay: in vitro cell-based assay, cells expressing the T1R umami taste receptor; enhancement of MSG
Conditions: for MSG Enh. Ratio: MSG enhancement ratio at a particular concentration (concentration not given); for EC50: cells that express the T1R umami taste receptor, dose-binding curves; for MSG Enh. Ratio @ [10 uM]: compound at 10 uM
Description: Each of Compounds 101-145 was synthesized according to one of the general procedures set forth above in Examples 1 and Example 2. Thereafter, the compounds were tested in an in vitro cell-based assay having cells that express the T1R umami taste receptor. Dose-binding curves were recorded and the EC50 was determined for enhancement of MSG binding. Table 2 sets forth the calculated EC50 values for certain tested compounds as well as the MSG enhancement ratio at a particular concentration.

Row | MSG Enh. Ratio | EC50 | SMILES | MSG Enh. Ratio @ [10 uM]
1 | 1.5 | > 50 µM | CCC(C)[C@@H](CO)NC(=O)/C=C/c1ccc(OC)cc1 (stereo in doubt) [Compound 115, (E)-N-((2S,3R)-1-hydroxy-3-methylpentan-2-yl)-3-(4-methoxyphenyl)acrylamide] | 
2 | 1.4 | > 50 µM | CC(C)c1ccc(C(=O)N[C@H](CO)Cc2ccccc2)cc1 [Compound 101, (S)-N-(1-hydroxy-3-phenylpropan-2-yl)-4-isopropylbenzamide] | 
3 | 1.4 | > 50 µM | CC(C)C[C@@H](CO)NC(=O)c1ccc(C(C)C)cc1 [Compound 102, (S)-N-(1-hydroxy-4-methylpentan-2-yl)-4-isopropylbenzamide] | 
4 | 1.2 | > 50 µM | CC[C@H](C)[C@@H](CO)NC(=O)c1ccc(C(C)C)cc1 [Compound 103, N-((2S,3S)-1-hydroxy-3-methylpentan-2-yl)-4-isopropylbenzamide] | 
5 | 2.8 | > 50 µM | Cc1ccc(C(=O)N[C@H](CO)CC(C)C)cc1C [Compound 104, (S)-N-(1-hydroxy-4-methylpentan-2-yl)-3,4-dimethylbenzamide] | 
6 | 3.4 | > 50 µM | Cc1ccc(C(=O)N[C@H](CO)Cc2ccccc2)cc1C [Compound 105, (S)-N-(1-hydroxy-3-phenylpropan-2-yl)-3,4-dimethylbenzamide] | 
7 | 2.5 | > 50 µM | CC[C@H](C)[C@@H](CO)NC(=O)c1ccc(C)c(C)c1 [Compound 106, N-((2S,3S)-1-hydroxy-3-methylpentan-2-yl)-3,4-dimethylbenzamide] | 
8 | 1.9 | > 50 µM | COc1cc(OC)cc(C(=O)N[C@H](CO)Cc2ccccc2)c1 [Compound 107, (S)-N-(1-hydroxy-3-phenylpropan-2-yl)-3,5-dimethoxybenzamide] | 
9 | 1.3 | > 50 µM | COc1cc(OC)cc(C(=O)N[C@H](CO)CC(C)C)c1 [Compound 108, (S)-N-(1-hydroxy-4-methylpentan-2-yl)-3,5-dimethoxybenzamide] | 
10 | 1.1 | > 50 µM | CC[C@H](C)[C@@H](CO)NC(=O)c1cc(OC)cc(OC)c1 [Compound 109, N-((2S,3S)-1-hydroxy-3-methylpentan-2-yl)-3,5-dimethoxybenzamide] | 
11 | 1.4 | > 50 µM | CC[C@H](C)[C@@H](CO)NC(=O)c1ccc2c(c1)OCO2 [Compound 110, N-((2S,3S)-1-hydroxy-3-methylpentan-2-yl) benzo[d][1,3]dioxole-5-carboxamide] | 
12 | 1.8 | > 50 µM | O=C(N[C@H](CO)Cc1ccccc1)c1ccc2c(c1)OCO2 [Compound 111, (S)-N-(1-hydroxy-3-phenylpropan-2-yl) benzo[d][1,3]dioxole-5-carboxamide] | 
13 | 2.3 | > 50 µM | CC(C)C[C@@H](CO)NC(=O)c1ccc2c(c1)OCO2 [Compound 112, (S)-N-(1-hydroxy-4-methylpentan-2-yl) benzo[d][1,3]dioxole-5-carboxamide] | 
14 | 1.6 | > 50 µM | COc1cccc(C(=O)N[C@H](CO)Cc2ccccc2)c1O [Compound 113, (S)-2-hydroxy-N-(1-hydroxy-3-phenylpropan-2-yl)-3-methoxybenzamide] | 
15 | 1.7 | > 50 µM | COc1ccc(/C=C/C(=O)N[C@H](CO)CC(C)C)cc1 [Compound 114, (S,E)-3-(4-methoxyphenyl)-N-(1-hydroxy-4-methylpentan-2-yl)acrylamide] | 
16 | 6.8 | ~25 µM | CCOc1ccc(/C=C/C(=O)N[C@H](CO)CC(C)C)cc1 [Compound 117, (S,E)-3-(4-ethoxyphenyl)-N-(1-hydroxy-4-methylpentan-2-yl)acrylamide] | 

Row | MSG Enh. Ratio | EC50 | SMILES | MSG Enh. Ratio @ [10 uM]
17 | 6.0 | ~40 µM | CCOc1ccc(/C=C/C(=O)N[C@H](CO)[C@@H](C)CC)cc1 [Compound 118, (E)-3-(4-ethoxyphenyl)-N-((2S,3S)-1-hydroxy-3-methylpentan-2-yl)acrylamide] | 
18 |  | 10 µM | CCOc1ccc(/C=C/C(=O)N[C@H](CO)Cc2ccccc2)cc1 [Compound 119, (S,E)-3-(4-ethoxyphenyl)-N-(1-hydroxy-3-phenylpropan-2-yl)acrylamide] | 6.1 @ [10 uM]
19 | 1.3 | > 50 µM | Cc1ccc(C(=O)N[C@H](Cc2ccccc2)C(=O)O)cc1 [Compound 120, (4-methylbenzoyl)-D-phenylalanine] | 
20 | 1.2 | > 50 µM | Cc1ccc(C(=O)N[C@@H](CC(C)C)C(=O)O)cc1 [Compound 123, (4-methylbenzoyl)-L-leucine] | 
21 | 1.2 | > 50 µM | Cc1ccc(C(=O)N[C@@H](C(=O)O)C(C)C)cc1C [Compound 124, (3,4-dimethylbenzoyl)-D-valine] | 
22 | 1.3 | > 50 µM | Cc1ccc(C(=O)N[C@H](Cc2ccccc2)C(=O)O)cc1C [Compound 125, (3,4-dimethylbenzoyl)-D-phenylalanine] | 
23 | 1.8 | 27 µM | Cc1ccc(C(=O)N[C@H](CC(C)C)C(=O)O)cc1C [Compound 126, (3,4-dimethylbenzoyl)-D-leucine] | 
24 | 2.0 | > 50 µM | COc1ccc(C[C@H](NC(=O)c2ccc(C)c(C)c2)C(=O)O)cc1 [Compound 127, (S)-2-(3,4-dimethylbenzamido)-3-(4-methoxyphenyl) propanoic acid] | 
25 | 1.4 | > 50 µM | Cc1ccc(C(=O)N[C@@H](CCC(=O)O)C(=O)O)cc1C [Compound 128, (3,4-dimethylbenzoyl)-L-glutamic acid] | 
26 | 3.5 | ~20 µM | CC(C)C[C@@H](NC(=O)c1ccc2c(c1)OCO2)C(=O)O [Compound 129, (benzo[d][1,3]dioxole-5-carbonyl)-D-leucine] | 
27 | 1.2 | > 50 µM | O=C(O)CC[C@H](NC(=O)c1ccc2c(c1)OCO2)C(=O)O [Compound 131, (benzo[d][1,3]dioxole-5-carbonyl)-L-glutamic acid] | 
28 | 1.7 | > 50 µM | CC(C)[C@H](NC(=O)/C=C/c1ccccc1)C(=O)O [Compound 132, Cinnamoyl-L-valine] | 
29 | 1.1 | > 50 µM | CC(C)C[C@H](NC(=O)/C=C/c1ccccc1)C(=O)O [Compound 133, Cinnamoyl-L-leucine] | 
30 | 1.2 | > 50 µM | O=C(O)CC[C@H](NC(=O)/C=C/c1ccccc1)C(=O)O [Compound 134, Cinnamoyl-L-glutamate] | 
31 | 2.0 | > 50 µM | COc1ccc(/C=C/C(=O)N[C@@H](Cc2ccc(OC)cc2)C(=O)O)cc1 [Compound 135, (S,E)-3-(4-methoxyphenyl)-2-(3-(4-methoxyphenyl)acrylamido)propanoic acid] | 

Row | SMILES | MSG Enh. Ratio | EC50 | MSG Enh. Ratio @ [10 uM]
32 | COc1ccc(/C=C/C(=O)N[C@H](CO)Cc2ccccc2)cc1 [Compound 116, (S,E)-3-(4-methoxyphenyl)-N-(1-hydroxy-3-phenylpropan-2-yl)acrylamide] |  | 11 µM | 6.9 @ [10 uM]
33 | Cc1ccc(C(=O)N[C@H](C(=O)O)C(C)C)cc1C [Compound 121, (3,4-dimethylbenzoyl)-L-valine] | 1.1 | > 50 µM | 
